Data published in publication PMC6113223 (2018).

Legend:
[1] = test system: Lee aptamer (56-mer) (DNA, aptamer) AGCAGCACAGAGGTCATGGGGGGTGTGACTTTGGTGTGCCTATGCGTGCTACGGAA; assay: AuNP aggregation colorimetry (A650/A525), centrifugation and resuspension; conditions: 100 mM NaCl (Na+), added after target incubation, water, 5% ethanol in target solution, room temperature; for binding: tested at 600 nM
[2] = test system: Random ssDNA (70-mer) (DNA, single strand) AGGCCTAAGGGCATAATTAGCTCGAGCTCGAAAGGGGTTATATGATGATTTGAATTCATGGGGCCCGACT; assay: as above; conditions: 100 mM NaCl (Na+), added after target incubation; water, 5% ethanol in target solution, room temperature; control; VTD3 series in Figures 2C and 3B

| SMILES | binding [1] | other results |
| --- | --- | --- |
| C=C1CC[C@H](O)C/C1=C/C=C1\CCC[C@]2(C)[C@@H]([C@H](C)/C=C/[C@H](C)C(C)C)CC[C@@H]12 | – | binding ([1]; concentration series in Figure 2C): no |
| C=C1CC[C@H](O)C/C1=C/C=C1\CCC[C@]2(C)[C@@H]([C@H](C)CCCC(C)C)CC[C@@H]12 | – | Kd, app ([1]; 10 min, apparent, Langmuir fit, aptamer adsorbed on AuNP): 0.22 µM; binding [2]: no |
| CC(=O)[C@H]1CC[C@H]2[C@@H]3CCC4=CC(=O)CC[C@]4(C)[C@H]3CC[C@]12C | no | – |
| C[C@]12C=CC(=O)C=C1CC[C@@H]1[C@@H]2C(=O)C[C@@]2(C)[C@H]1CC[C@]2(O)C(=O)CO | no | – |
| C[C@]12CC[C@@H]3c4ccc(O)cc4CC[C@H]3[C@@H]1CC[C@@H]2O | no | – |
